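Briefly, cells in 96-well plates were exposed to five compound concentrations for 48 h, and endpoints were estimated by linear interpolation. The concentration for full growth arrest is given as TGI.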
Assays:
Experiment in all cases: growth of human tumour cells (NCI), 48 h
UACC-257 melanoma = test system: UACC-257 melanoma
SF-539 CNS = test system: SF-539 CNS
LOX IMVI melanoma = test system: LOX IMVI melanoma
PC-3 prostate = test system: PC-3 prostate
MOLT-4 leukemia = test system: MOLT-4 leukemia
MALME-3M melanoma = test system: MALME-3M melanoma
UO-31 renal = test system: UO-31 renal
NCI-H23 lung = test system: NCI-H23 lung
MCF7 breast = test system: MCF7 breast
NCI/ADR-RES ovarian = test system: NCI/ADR-RES ovarian
ACHN renal = test system: ACHN renal
BT-549 breast = test system: BT-549 breast
HL-60(TB) leukemia = test system: HL-60(TB) leukemia
A549 NSCLC = test system: A549 NSCLC
OVCAR-3 ovarian = test system: OVCAR-3 ovarian
RPMI-8226 leukemia = test system: RPMI-8226 leukemia
HCC-2998 colon = test system: HCC-2998 colon
SK-OV-3 ovarian = test system: SK-OV-3 ovarian
SF-295 CNS = test system: SF-295 CNS
CAKI-1 renal = test system: CAKI-1 renal
HCT-15 colon = test system: HCT-15 colon
SF-268 CNS = test system: SF-268 CNS
HCT-116 colon = test system: HCT-116 colon
SN12C renal = test system: SN12C renal
NCI-H226 lung = test system: NCI-H226 lung
CCRF-CEM leukemia = test system: CCRF-CEM leukemia
NCI-H460 lung = test system: NCI-H460 lung
SNB-19 CNS = test system: SNB-19 CNS
KM12 colon = test system: KM12 colon
COLO 205 colon = test system: COLO 205 colon
TK-10 renal = test system: TK-10 renal
A498 renal = test system: A498 renal
EKVX NSCLC = test system: EKVX NSCLC
SK-MEL-5 melanoma = test system: SK-MEL-5 melanoma
786-0 renal = test system: 786-0 renal
MDA-N = test system: MDA-N
SNB-75 CNS = test system: SNB-75 CNS
HOP-62 NSCLC = test system: HOP-62 NSCLC
HOP-92 NSCLC = test system: HOP-92 NSCLC
RXF 393 renal = test system: RXF 393 renal
HT29 colon = test system: HT29 colon
UACC-62 melanoma = test system: UACC-62 melanoma
OVCAR-5 ovarian = test system: OVCAR-5 ovarian
OVCAR-8 ovarian = test system: OVCAR-8 ovarian
DU-145 prostate = test system: DU-145 prostate
OVCAR-4 ovarian = test system: OVCAR-4 ovarian
SW-620 colon = test system: SW-620 colon
K-562 leukemia = test system: K-562 leukemia
SK-MEL-2 melanoma = test system: SK-MEL-2 melanoma
MDA-MB-435 = test system: MDA-MB-435
U251 CNS = test system: U251 CNS

Measured: TGI

O=C(OCC1OC(c2nn[nH]n2)C(OC(=O)c2ccccc2)C1OC(=O)c1ccccc1)c1ccccc1 (stereo unspecified)
> 100 µM: all assays above

— PubChem BioAssay (NCI)
